Laboratory results as given in patent US20240327380A1, “BTK INHIBITORS” (BIOGEN MA INC., priority 2020, published 2024).
Read-outs that look alike come from different tables or passages of the source.

Experiments:
[1] = target: T1, active BTK enzyme (Upstate 14-552) (Homo sapiens, UniProt Q06187); experiment: In Vitro BTK Kinase Assay: Btk-PolyGAT-LS Assay; format: biochemical; details: ATP 10 μM, polyGAT 100 nM, BTK 0.25 nM, 30 minutes, TRF readout
T1 construct: purchased Upstate 14-552
In short: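 Active BTK (0.25 nM) phosphorylates fluorescein-polyGAT peptide (100 nM) with 10 µM ATP in Tris-HCl pH 7.5/MgCl2/DTT buffer, 30 min, EDTA stop. Phosphopeptide detected by TR-FRET with Tb-PY20 antibody after 45 min at room temperature; IC50 from four-parameter fit against DMSO and EDTA controls.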

[2] = test system: CD69 expression on CD19+ B cells in human whole blood; experiment: In Vitro whole blood CD69 Assay; format: cell-based; details: B-cell
Experimental: In Vitro whole blood CD69 Assay
Human heparinized venous blood from health donors was aliquoted into 96-well plate and “spiked” with serial dilutions of formula I compounds in DMSO or with DMSO without drug. The final concentration of DMSO in all wells was 0.1%. The plate was incubated at 37° C. for 30 min. Drug-containing samples were stimulated with […] mouse anti-human IgD-dextran (1A62) or […] polyclonal rabbit F(ab′)2 anti-human IgD. Phosphate-buffered saline (PBS) was added to the negative control unstimulated sample and the plates were incubated overnight (18 to 22 hours) at 37° C. Cells were stained with fluorochrome-conjugated anti-CD19 and anti-CD69 antibodies. Lyse/fix solution was used to remove red blood cells by hypotonic lysis and to fix the remaining cells, which were then analyzed by flow cytometry. CD19+ B cells were gated and analyzed for CD69 expression. The percentage of B cells expressing CD69 was plotted versus the log 10 of the concentration of the drug and the best-fit curves (variable Hill slope) were generated to obtain the IC50 value.

[3] = human heparinized whole blood, anti-human IgD stimulation overnight, percentage of CD19+ B cells expressing CD69, flow cytometry, read-out: IC50

T1 sequence (Q06187 whole entry): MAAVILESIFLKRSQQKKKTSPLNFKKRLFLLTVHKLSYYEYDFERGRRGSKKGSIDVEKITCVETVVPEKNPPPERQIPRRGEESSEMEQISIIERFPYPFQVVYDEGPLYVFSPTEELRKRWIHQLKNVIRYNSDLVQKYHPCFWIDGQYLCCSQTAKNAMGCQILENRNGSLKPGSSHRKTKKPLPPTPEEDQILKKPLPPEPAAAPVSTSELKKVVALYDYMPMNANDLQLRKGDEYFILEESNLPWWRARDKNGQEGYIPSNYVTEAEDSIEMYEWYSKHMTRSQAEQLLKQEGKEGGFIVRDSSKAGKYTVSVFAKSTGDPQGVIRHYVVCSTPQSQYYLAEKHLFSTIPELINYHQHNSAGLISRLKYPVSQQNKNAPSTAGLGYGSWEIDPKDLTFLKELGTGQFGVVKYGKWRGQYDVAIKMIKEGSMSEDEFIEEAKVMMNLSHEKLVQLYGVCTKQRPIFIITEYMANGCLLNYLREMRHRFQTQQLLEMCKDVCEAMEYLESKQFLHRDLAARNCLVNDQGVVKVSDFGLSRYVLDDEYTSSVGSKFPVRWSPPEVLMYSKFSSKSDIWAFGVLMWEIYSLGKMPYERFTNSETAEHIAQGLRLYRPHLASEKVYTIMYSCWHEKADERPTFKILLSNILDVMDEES

Compound	IC50 [1]	IC50 [2, 3]	IC50 ([2]; Homo sapiens)
Cc1cc(-c2ccncc2N2CCN(C(=O)/C=C/CN(C)C)CC2)ccc1CNC(=O)c1nc(C2(C)CC2)no1 [Example 73, (E)-N-(4-(3-(4-(4-(dimethylamino)but-2-enoyl)piperazin-1-yl)pyridin-4-yl)-2-methylbenzyl)-3-(1-methylcyclopropyl)-1,2,4-oxadiazole-5-carboxamide]	≤ 0.001 µM	0.1 to 1 µM	–
C=CC(=O)N(C)C1CCCN(c2cnccc2-c2ccc(CNC(=O)c3cnn(C(C)(C)C)c3)c(C)c2)C1 (stereo not shown) [Example 42, 1-(tert-butyl)-N-(2-methyl-4-(3-(3-(N-methylacrylamido)piperidin-1-yl)pyridin-4-yl)benzyl)-1H-pyrazole-4-carboxamide]	≤ 0.001 µM	0.1 to 1 µM	–
Cc1cc(-c2ccncc2N2CCN(C(=O)/C=C/CN(C)C)CC2)ccc1CN(C)C(=O)c1noc(C(C)(C)C)n1 [Example 71, (E)-5-(tert-butyl)-N-(4-(3-(4-(4-(dimethylamino)but-2-enoyl)piperazin-1-yl)pyridin-4-yl)-2-methylbenzyl)-N-methyl-1,2,4-oxadiazole-3-carboxamide]	0.001 to 0.01 µM	0.1 to 1 µM	–
Cc1cc(-c2ccncc2N2CCN(C(=O)/C=C/CN(C)C)CC2)ccc1CNC(=O)c1noc(C(C)(C)C)c1F [Example 95, (E)-5-(tert-butyl)-N-(4-(3-(4-(4-(dimethylamino)but-2-enoyl)piperazin-1-yl)pyridin-4-yl)-2-methylbenzyl)-4-fluoroisoxazole-3-carboxamide]	0.001 to 0.01 µM	0.1 to 1 µM	–
Cc1cc(-c2ccncc2N2CCN(C(=O)/C=C/CN(C)C)CC2)ccc1CNC(=O)c1noc(C(C)(C)C)n1 [Example 61, (E)-5-(tert-butyl)-N-(4-(3-(4-(4-(dimethylamino)but-2-enoyl)piperazin-1-yl)pyridin-4-yl)-2-methylbenzyl)-1,2,4-oxadiazole-3-carboxamide]	≤ 0.001 µM	< 0.1 µM	–
C=CC(=O)N(C)C1CCCN(c2cnccc2-c2ccc(CNC(=O)c3cc(C(C)(C)C)no3)c(C)c2)C1 (stereo not shown) [Example 46, 3-(tert-butyl)-N-(2-methyl-4-(3-(3-(N-methylacrylamido)piperidin-1-yl)pyridin-4-yl)benzyl)isoxazole-5-carboxamide]	≤ 0.001 µM	0.1 to 1 µM	–
Cc1cc(-c2ccncc2N2CCN(C(=O)/C=C/CN(C)C)CC2)ccc1[C@@H](C)NC(=O)c1noc(C(C)(C)C)n1 [Example 86, (R,E)-5-(tert-butyl)-N-(1-(4-(3-(4-(4-(dimethylamino)but-2-enoyl)piperazin-1-yl)pyridin-4-yl)-2-methylphenyl)ethyl)-1,2,4-oxadiazole-3-carboxamide]	0.001 to 0.01 µM	0.1 to 1 µM	–
C=CC(=O)N(C)[C@@H]1CCCN(c2cnccc2-c2ccc(CNC(=O)c3noc(C(C)(C)C)n3)c(C)c2F)C1 (stereo in doubt) [Example 19, 5-(tert-butyl)-N-(3-fluoro-2-methyl-4-(3-(3-(N-methylacrylamido)piperidin-1-yl)pyridin-4-yl)benzyl)-1,2,4-oxadiazole-3-carboxamide]	≤ 0.001 µM	0.1 to 1 µM	–
C=CC(=O)N(C)C1CCCN(c2cnccc2-c2ccc(CNC(=O)c3nc(C(C)(C)C)co3)c(C)c2)C1 (stereo not shown) [Example 39, 4-(tert-butyl)-N-(2-methyl-4-(3-(3-(N-methylacrylamido)piperidin-1-yl)pyridin-4-yl)benzyl)oxazole-2-carboxamide]	≤ 0.001 µM	–	0.1 to 1 µM
C=CC(=O)N(C)C1CCCN(c2cnccc2-c2ccc(CNC(=O)c3cn(C(C)(C)C)cn3)c(C)c2)C1 (stereo not shown) [Example 43, 1-(tert-butyl)-N-(2-methyl-4-(3-(3-(N-methylacrylamido)piperidin-1-yl)pyridin-4-yl)benzyl)-1H-imidazole-4-carboxamide]	0.001 to 0.01 µM	> 1 µM	–

Now from value to compound, other results behind:

IC50 [1]	IC50 [2, 3]	Compound	IC50 ([2]; Homo sapiens)
≤ 0.001 µM	0.1 to 1 µM	C=CC(=O)N(C)C1CCCN(c2cnccc2-c2ccc(CNC(=O)c3cn(C(C)(C)C)nn3)c(C)c2)C1 (stereo not shown) [Example 1, 1-(tert-butyl)-N-(2-methyl-4-(3-(3-(N-methylacrylamido)piperidin-1-yl)pyridin-4-yl)benzyl)-1H-1,2,3-triazole-4-carboxamide]	–
0.001 to 0.01 µM	0.1 to 1 µM	C=CC(=O)N(C)C1COCCN(c2cnccc2-c2ccc(CNC(=O)c3cn(C(C)(C)C)nn3)c(C)c2)C1 (stereo not shown) [Example 52, 1-(tert-butyl)-N-(2-methyl-4-(3-(6-(N-methylacrylamido)-1,4-oxazepan-4-yl)pyridin-4-yl)benzyl)-1H-1,2,3-triazole-4-carboxamide]	–
0.001 to 0.01 µM	> 1 µM	C=CC(=O)N1CCCC(c2cnccc2-c2ccc(CNC(=O)c3cn(C(C)(C)C)nn3)c(C)c2)C1 (stereo not shown) [Example 23, N-(4-(3-(1-acryloylpiperidin-3-yl)pyridin-4-yl)-2-methylbenzyl)-1-(tert-butyl)-1H-1,2,3-triazole-4-carboxamide]	–
≤ 0.001 µM	< 0.1 µM	C=CC(=O)N(C)C1CCCN(c2cncnc2-c2ccc(CNC(=O)c3cn(C(C)(C)C)nn3)c(C)c2)C1 (stereo not shown) [Example 8, 1-(tert-butyl)-N-(2-methyl-4-(5-(3-(N-methylacrylamido)piperidin-1-yl)pyrimidin-4-yl)benzyl)-1H-1,2,3-triazole-4-carboxamide]	–
≤ 0.001 µM	0.1 to 1 µM	C=CC(=O)N1CCN(c2cnccc2-c2ccc(CNC(=O)c3cn(C(C)(C)C)nn3)c(C)c2)CC1 [Example 49, N-(4-(3-(4-acryloylpiperazin-1-yl)pyridin-4-yl)-2-methylbenzyl)-1-(tert-butyl)-1H-1,2,3-triazole-4-carboxamide]	–
0.001 to 0.01 µM	> 1 µM	C=CC(=O)N1CCCC(c2cnccc2-c2ccc(CNC(=O)c3nc(C4(C)CC4)no3)c(C)c2)C1 (stereo not shown) [Example 29, N-(4-(3-(1-acryloylpiperidin-3-yl)pyridin-4-yl)-2-methylbenzyl)-3-(1-methylcyclopropyl)-1,2,4-oxadiazole-5-carboxamide]	–
> 0.01 µM	> 1 µM	C=CC(=O)N1CCC[C@@H](c2cnccc2-c2ccc(CNC(=O)c3noc(C4(C)CC4)n3)c(C)c2)C1 (single isomer, unassigned) [Example 28]	–
> 0.01 µM	> 1 µM	C=CC(=O)N(C)[C@H]1CCCN(c2cnccc2-c2ccc(CNC(=O)c3cn(C(C)(C)C)nn3)c(C)c2)C1 [Example 15, (S)-1-(tert-butyl)-N-(2-methyl-4-(3-(3-(N-methylacrylamido)piperidin-1-yl)pyridin-4-yl)benzyl)-1H-1,2,3-triazole-4-carboxamide]	–
0.001 to 0.01 µM	0.1 to 1 µM	C=CC(=O)N(C)C1CCN(c2cnccc2-c2ccc(CNC(=O)c3cn(C(C)(C)C)nn3)c(C)c2)C1 (stereo not shown) [Example 2, 1-(tert-butyl)-N-(2-methyl-4-(3-(3-(N-methylacrylamido)pyrrolidin-1-yl)pyridin-4-yl)benzyl)-1H-1,2,3-triazole-4-carboxamide]	–
0.001 to 0.01 µM	0.1 to 1 µM	C=CC(=O)N1CCCC(c2cnccc2-c2ccc(CNC(=O)c3cc(C(C)(C)C)on3)c(C)c2)C1 (stereo not shown) [Example 32, N-(4-(3-(1-acryloylpiperidin-3-yl)pyridin-4-yl)-2-methylbenzyl)-5-(tert-butyl)isoxazole-3-carboxamide]	–
≤ 0.001 µM	< 0.1 µM	C=CC(=O)N(C)[C@@H]1CCCN(c2cnccc2-c2ccc(CNC(=O)c3cn(C(C)(C)C)nn3)c(C)c2)C1 [Example 22, (R)-1-(tert-butyl)-N-(2-methyl-4-(3-(3-(N-methylacrylamido)piperidin-1-yl)pyridin-4-yl)benzyl)-1H-1,2,3-triazole-4-carboxamide]	–
≤ 0.001 µM	0.1 to 1 µM	C=CC(=O)N(CC)[C@@H]1CCCN(c2cnccc2-c2ccc(CNC(=O)c3cn(C(C)(C)C)nn3)c(C)c2)C1 (stereo in doubt) [Example 16, 1-(tert-butyl)-N-(4-(3-(3-(N-ethylacrylamido)piperidin-1-yl)pyridin-4-yl)-2-methylbenzyl)-1H-1,2,3-triazole-4-carboxamide]	–
0.001 to 0.01 µM	> 1 µM	C=CC(=O)N1CCC[C@H](c2cnccc2-c2ccc(CNC(=O)c3cn(C(C)(C)C)nn3)c(C)c2)C1 (single isomer, unassigned) [Example 24]	–
0.001 to 0.01 µM	> 1 µM	C=CC(=O)N1CCC[C@H](c2cnccc2-c2ccc(CNC(=O)c3cc(C(C)(C)C)on3)c(C)c2)C1 (single isomer, unassigned) [Example 33]	–
0.001 to 0.01 µM	0.1 to 1 µM	C=CC(=O)N1CCCC(c2cnccc2-c2ccc(CNC(=O)c3noc(C4(C)CC4)n3)c(C)c2)C1 (stereo not shown) [Example 26, N-(4-(3-(1-acryloylpiperidin-3-yl)pyridin-4-yl)-2-methylbenzyl)-5-(1-methylcyclopropyl)-1,2,4-oxadiazole-3-carboxamide]	–
≤ 0.001 µM	0.1 to 1 µM	C=CC(=O)N(C)[C@@H]1CCCN(c2cncc(F)c2-c2ccc(CNC(=O)c3cn(C(C)(C)C)nn3)c(C)c2)C1 [Example 56, 1-tert-butyl-N-[[4-[3-fluoro-5-[(3R)-3-[methyl(prop-2-enoyl)amino]-1-piperidyl]-4-pyridyl]-2-methyl-phenyl]methyl]triazole-4-carboxamide]	–
